# Reference: patent US20220288404A1, “METHODS FOR APPLYING TUMOR TREATING FIELDS IN COMBINATION WITH CANCER TREATING THERAPEUTICS” (THE BOARD OF REGENTS OF THE UNIVERSITY OF TEXAS SYSTEM, priority 2021, published 2022)
# Key:
# Type in all cases: cell-based
# H1299 cells [1] = assay: Clonogenic cell survival assay, H1299 cells; conditions: for CI AZD + 2Gy / CI TTFields + 2Gy + AZD / CI TTFields + AZD: CI>1 synergistic
# Procedure: (§1) Using certain embodiments disclosed herein, TTFields in combination with various inhibitors and/or radiation treatment (IR) were applied to NSCLC cells or pancreatic cancer cells. For example, a predetermined inhibitor at a predetermined concentration was delivered to NSCLC cells or pancreatic cancer cells, and the cells were immediately exposed to TTFields (e.g., 100-250 kHz and 1-20 V/cm v/cm) for about 24, […], or 72 hours. The predetermined concentration was a cell line specific concentration for optimal target cell killing. Then, the cells were irradiated (at a dose of 2Gy) for less than a minute (e.g., 3.25 Gy/min) and immediately plated for survival.
# (§2) FIGS. 4 and 5 depict example effects of TTFields, AZD6738, radiation, and a combination thereof on non-small cell lung cancer cells (NSCLC) and pancreatic cancer cell, respectively. In particular, FIGS. 4 and 5 show TTFields exposure synergistically increases the effects of ATR inhibitor AZD6738 on NSLCL cells (FIG. 4) survival and pancreatic cancer cell (FIG. 5) survival. TTFields were used together with ATR inhibitor AZD6738 and radiation (IR). A synergistic effect was observed when AZD6738 and IR were combined with TTFields using the highest single agent (HSA) approach. The following formulas were used for calculating CI: SF=Survival Fraction; CI (TTFields)+(2Gy)=(SF2Gy×SFTTFields)/SF2Gy+TTFields; CI(TTFields)+(AZD)=(SFAZD×SFTTFields)/SFAZD+TTFields; CI (2Gy)+(AZD)=(SF2Gy×SFAZD)/SF2Gy+AZD; and CI (TTFields)+(2Gy)+(AZD)=(SF2Gy×SFAZD×SFTTFields)/SFTTFields+2Gy+AZD.
# (§3) The following formulas are used for calculating the combination Index: SF=Survival Fraction; CI (TTFields)+(2Gy)=(SF2Gy×SFTTFields)/SF2Gy+TTFields; CI(TTFields)+(Irino)=(SFIrino×SFTTFields)/SFIrino+TTFields; CI (2Gy)+(Irino)=(S2Gy×SFIrino)SF2Gy+Irino; and CI (TTFields)+(2Gy)+(Irino)=(SF2Gy×SFIrino×SFTTFields)/SFTTFields+2Gy+Irino.
# H157 cells [2] = assay: Clonogenic cell survival assay, H157 cells; conditions: 48 h, CI>1 synergistic
# H1299 cells [3] = assay: Clonogenic cell survival assay, H1299 cells; conditions: 48 h, CI>1 synergistic
# Panc-1 cells = assay: Clonogenic cell survival assay, Panc-1 cells; conditions: for CI AZD + 2Gy / CI TTFields + 2Gy + AZD / CI TTFields + AZD / CI 2Gy + Olap / CI TTFields + 2Gy + Olap / CI TTFields + Olap: CI>1 synergistic; for surviving fraction: agent as shown in figure
# Procedure: (§4) Using certain embodiments disclosed herein, TTFields in combination with various inhibitors and/or radiation treatment (IR) were applied to NSCLC cells or pancreatic cancer cells. For example, a predetermined inhibitor at a predetermined concentration was delivered to NSCLC cells or pancreatic cancer cells, and the cells were immediately exposed to TTFields (e.g., 100-250 kHz and 1-20 V/cm v/cm) for about 24, […], or 72 hours. The predetermined concentration was a cell line specific concentration for optimal target cell killing.
# (§5) Olaparib was given concomitant with TTFields. Radiation was given 24, 48 or 72 h after the initiation of TTFields and specific agents. […] Values greater than 1.0 are considered as synergistic, that is, greater than the sum of the individual responses. The following formulas were used for calculating CI: SF=Survival Fraction; CI (TTFields)+(2Gy)=(SF2Gy×SFTTFields)/SF2Gy+TTFields; CI(TTFields)+(Olap)=(SFOlap×SFTTFields)/SFOlap+TTFields; CI (2Gy)+(Olap)=(SF2Gy×SFOlap)/SF2Gy+Olap; and CI (TTFields)+(2Gy)+(Olap)=(SF2Gy×SFOlap×SFTTFields)/SFTTFields+2Gy+Olap. […] Based upon the Highest Single Agent […] approach. The calculation for the Combination Index can be found below.
# as §2, §3
# 04.03 cells = assay: Clonogenic cell survival assay, 04.03 cells; conditions: for CI AZD + 2Gy / CI TTFields + 2Gy + AZD / CI TTFields + AZD / CI 2Gy + Olap / CI TTFields + 2Gy + Olap / CI TTFields + Olap: CI>1 synergistic; for surviving fraction: agent as shown in figure
# Procedure: as §4, §5, §2
# H157 cells [4] = assay: Clonogenic cell survival assay, H157 cells; conditions: for CI AZD + 2Gy / CI TTFields + 2Gy + AZD / CI TTFields + AZD: CI>1 synergistic
# Procedure: as §1, §2, §3
compound,measurement,setting,value
"C[C@@H]1COCCN1c1cc(C2([S@](C)(=N)=O)CC2)nc(-c2cc[nH]c3nccc2-3)n1 [AZD, Ceralasertib (AZD6738)]","effect of combinations of TTFields, agent and/or IR on cell survival",H1299 cells [1],synergistic effects
same,CI AZD + 2Gy,H1299 cells [1]; 24 h,1.127
same,CI TTFields + 2Gy + AZD,H1299 cells [1]; 24 h,3.553
same,CI TTFields + AZD,H1299 cells [1]; 24 h,1.070
same,CI TTFields + 2Gy + AZD,H1299 cells [1]; 48 h,2.535
same,CI AZD + 2Gy,H1299 cells [1]; 72 h,1.143
same,CI TTFields + 2Gy + AZD,H1299 cells [1]; 72 h,2.206
same,CI TTFields + AZD,H1299 cells [1]; 72 h,1.092
same,surviving fraction,H1299 cells [1]; agent as shown in figure,significantly reduced
same,CI TTFields + AZD,H157 cells [2],1.072
same,CI AZD + 2Gy,H1299 cells [3],1.215
same,CI TTFields + AZD,H1299 cells [3],1.242
same,"effect of combinations of TTFields, agent and/or IR on cell survival",Panc-1 cells,synergistic effects
same,CI AZD + 2Gy,Panc-1 cells; 24 h,0.894
same,CI TTFields + 2Gy + AZD,Panc-1 cells; 24 h,1.068
same,CI TTFields + AZD,Panc-1 cells; 24 h,1.088
same,CI AZD + 2Gy,Panc-1 cells; 48 h,0.879
same,CI TTFields + 2Gy + AZD,Panc-1 cells; 48 h,1.153
same,CI TTFields + AZD,Panc-1 cells; 48 h,0.970
same,CI AZD + 2Gy,Panc-1 cells; 72 h,1.030
same,CI TTFields + 2Gy + AZD,Panc-1 cells; 72 h,1.514
same,CI TTFields + AZD,Panc-1 cells; 72 h,1.072
same,surviving fraction,Panc-1 cells,significantly reduced
same,"effect of combinations of TTFields, agent and/or IR on cell survival",04.03 cells,synergistic effects
same,CI AZD + 2Gy,04.03 cells; 24 h,1.018
same,CI TTFields + 2Gy + AZD,04.03 cells; 24 h,1.272
same,CI TTFields + AZD,04.03 cells; 24 h,1.049
same,CI AZD + 2Gy,04.03 cells; 48 h,1.158
same,CI TTFields + 2Gy + AZD,04.03 cells; 48 h,2.394
same,CI TTFields + AZD,04.03 cells; 48 h,1.550
same,CI AZD + 2Gy,04.03 cells; 72 h,1.011
same,CI TTFields + 2Gy + AZD,04.03 cells; 72 h,2.674
same,CI TTFields + AZD,04.03 cells; 72 h,1.287
same,surviving fraction,04.03 cells,significantly reduced
same,"effect of combinations of TTFields, agent and/or IR on cell survival",H157 cells [4],synergistic effects
same,CI AZD + 2Gy,H157 cells [4]; 24 h,1.498
same,CI TTFields + 2Gy + AZD,H157 cells [4]; 24 h,2.430
same,CI TTFields + AZD,H157 cells [4]; 24 h,1.048
same,CI AZD + 2Gy,H157 cells [4]; 48 h,1.292
same,CI TTFields + 2Gy + AZD,H157 cells [4]; 48 h,2.062
same,CI AZD + 2Gy,H157 cells [4]; 72 h,3.115
same,CI TTFields + 2Gy + AZD,H157 cells [4]; 72 h,4.874
same,CI TTFields + AZD,H157 cells [4]; 72 h,1.036
same,surviving fraction,H157 cells [4]; agent as shown in figure,significantly reduced
"O=C(c1cc(Cc2n[nH]c(=O)c3ccccc23)ccc1F)N1CCN(C(=O)C2CC2)CC1 [Olap, Olaparib]","effect of combinations of TTFields, agent and/or IR on cell survival",Panc-1 cells,synergistic effects
same,CI 2Gy + Olap,Panc-1 cells; 24 h,0.890
same,CI TTFields + 2Gy + Olap,Panc-1 cells; 24 h,1.589
same,CI TTFields + Olap,Panc-1 cells; 24 h,1.035
same,CI 2Gy + Olap,Panc-1 cells; 48 h,0.975
same,CI TTFields + 2Gy + Olap,Panc-1 cells; 48 h,1.817
same,CI TTFields + Olap,Panc-1 cells; 48 h,1.209
same,CI 2Gy + Olap,Panc-1 cells; 72 h,1.030
same,CI TTFields + 2Gy + Olap,Panc-1 cells; 72 h,2.028
same,CI TTFields + Olap,Panc-1 cells; 72 h,1.215
same,surviving fraction,Panc-1 cells,significantly reduced
same,"effect of combinations of TTFields, agent and/or IR on cell survival",04.03 cells,synergistic effects
same,CI 2Gy + Olap,04.03 cells; 24 h,1.550
same,CI TTFields + 2Gy + Olap,04.03 cells; 24 h,2.863
same,CI TTFields + Olap,04.03 cells; 24 h,1.101
same,CI 2Gy + Olap,04.03 cells; 48 h,1.582
same,CI TTFields + 2Gy + Olap,04.03 cells; 48 h,2.066
same,CI TTFields + Olap,04.03 cells; 48 h,0.973
same,CI 2Gy + Olap,04.03 cells; 72 h,1.462
same,CI TTFields + 2Gy + Olap,04.03 cells; 72 h,3.818
same,CI TTFields + Olap,04.03 cells; 72 h,1.042
same,surviving fraction,04.03 cells,significantly reduced
